From the supplement of paper PMC8671470

Tests used:
Assay in all cases: cell viability (% survival relative to DMSO control, bortezomib = 0%); higher = less cytotoxic
Settings in all cases: 72 h
NOMO-1 = tested on: NOMO-1
Summary of the method: (§1)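 Percent survival figures are means of duplicate wells. They were obtained by CellTiter-Glo luminescence after 10 AML and 5 CML cell lines spent 72 h at 37 °C with 5% CO2 in 384-well plates with compounds at 1, 10, 100, 1000 or 10000 nM. Vehicle was set to 100% and a 10 µM positive control to 0%.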

HEL = tested on: HEL
Summary of the method: as §1

MV4-11 = tested on: MV4-11
Summary of the method: as §1

THP-1 = tested on: THP-1
Summary of the method: as §1

| Compound | cell viability (NOMO-1; 1 nM) | cell viability (NOMO-1; 10 nM) | cell viability (NOMO-1; 100 nM) | cell viability (NOMO-1; 1000 nM) | cell viability (NOMO-1; 10000 nM) | cell viability (HEL; 1 nM) | cell viability (HEL; 10 nM) | cell viability (HEL; 100 nM) | cell viability (HEL; 1000 nM) | cell viability (HEL; 10000 nM) | cell viability (MV4-11; 1 nM) | cell viability (MV4-11; 10 nM) | cell viability (MV4-11; 100 nM) | cell viability (MV4-11; 1000 nM) | cell viability (MV4-11; 10000 nM) | cell viability (THP-1; 1 nM) | cell viability (THP-1; 10 nM) | cell viability (THP-1; 100 nM) | cell viability (THP-1; 1000 nM) | cell viability (THP-1; 10000 nM) |
| --- | --- | --- | --- | --- | --- | --- | --- | --- | --- | --- | --- | --- | --- | --- | --- | --- | --- | --- | --- | --- |
| Clc1ccc2c(c1Cl)CNCC2 | 95.4% | 100% | 101% | 102% | 90.9% | 100% | 111% | 90.9% | 107% | 82.4% | 99.7% | 114% | 96.3% | 114% | 91.6% | 98.8% | 99.4% | 99.7% | 105% | 90.5% |
| O=C(O)C(S)=Cc1c[nH]c2ccc(F)cc12 | 103% | 97.9% | 107% | 116% | 94.8% | 102% | 103% | 95.4% | 94% | 101% | 96.2% | 97.6% | 81.7% | 103% | 83.6% | 99.1% | 97.6% | 98% | 113% | 101% |
| CC(C)Cc1sc(N)nc1-c1ccc(P(=O)(O)O)o1 | 97.7% | 96.9% | 98% | 99.5% | 83.9% | 95.3% | 93.1% | 118% | 109% | 85.5% | 102% | 101% | 113% | 101% | 87.3% | 107% | 103% | 98.3% | 104% | 95.5% |
| Cl.OC[C@H]1NC[C@@H](O)[C@@H](O)[C@@H]1O [1-Deoxymannojirimycin hydrochloride] | 103% | 89.9% | 104% | 99.3% | 92.1% | 102% | 83.2% | 112% | 119% | 86.1% | 102% | 92.2% | 99.3% | 105% | 80.8% | 107% | 91% | 98% | 102% | 91.9% |
| CN(C)c1nc(O)c2[nH]cnc2n1 [2-Dimethylamino-6-hydroxypurine] | 101% | 95.9% | 108% | 102% | 105% | 105% | 85.3% | 114% | 106% | 84.8% | 101% | 98.8% | 97.2% | 102% | 89.8% | 95.1% | 94.5% | 86.6% | 97.3% | 97.3% |
| O=C(O)c1cc2sccc2[nH]1 [4H-thieno[3,2-b]pyrrole-5-carboxylic acid] | 105% | 97.8% | 98.3% | 106% | 110% | 120% | 106% | 97.5% | 93.5% | 108% | 107% | 93% | 93.2% | 92.9% | 96.8% | 105% | 102% | 106% | 97.7% | 105% |
| [N-]=[N+]=CC(=O)CC[C@H](N)C(=O)O [6-Diazo-5-oxo-L-norleucine] | 98.9% | 99.9% | 104% | 97.1% | 106% | 98.6% | 109% | 98.5% | 95.1% | 96.6% | 78.2% | 106% | 108% | 97.1% | 105% | 98.1% | 96.7% | 100% | 102% | 106% |
| Sc1ncnc2nc[nH]c12 [6-mercaptopurine] | 108% | 86.7% | 88.6% | 41.5% | 30.5% | 96.5% | 98.2% | 95.6% | 70.6% | 7.42% | 87% | 85.5% | 80.1% | 27.3% | 24.7% | 98.3% | 106% | 98.1% | 90.6% | 85.2% |
| O=C(O)CC[C@H](NC(=O)c1ccc([N+](=O)[O-])cc1)C(=O)O [(S)-2-(4-Nitrobenzamido)pentanedioic acid] | 92.4% | 95% | 99.6% | 105% | 95.6% | 89.9% | 107% | 94% | 96.3% | 90.4% | 89.6% | 103% | 80% | 96.6% | 85.9% | 102% | 107% | 93.7% | 105% | 95.5% |
| O=C1Nc2ccccc2/C1=C\NCCc1ccc(O)c(O)c1 [AC1NZZMF] | 105% | 111% | 98% | 113% | 99.9% | 101% | 99.5% | 104% | 112% | 96.9% | 113% | 89.4% | 93.8% | 84.9% | 75.7% | 108% | 103% | 100% | 108% | 79.9% |
| Cc1ccc(S(=O)(=O)NC2c3ccccc3Oc3ccccc32)cc1 [AH-7614] | 102% | 102% | 104% | 97.1% | 103% | 107% | 96.9% | 103% | 107% | 98.9% | 94% | 94.1% | 100% | 94.7% | 93.3% | 96.9% | 96.7% | 99% | 96.7% | 100% |
| C[C@]12CC[C@H](O)CC1=CC[C@@H]1[C@@H]2CC[C@]2(C)C(c3cccnc3)=CC[C@@H]12 [Abiraterone] | 106% | 104% | 97.6% | 112% | 108% | 113% | 109% | 110% | 112% | 111% | 96.4% | 96.5% | 107% | 114% | 99% | 99.4% | 102% | 104% | 113% | 108% |
| O=C(COc1ccc(C(=O)c2ccccc2)cc1)NC1CCN(Cc2ccccc2)CC1 [AdipoRon] | 102% | 107% | 96.3% | 96.7% | 91.1% | 94.5% | 96.6% | 96.6% | 97.5% | 85.4% | 86.7% | 92% | 94.2% | 91.9% | 48.6% | 96.2% | 98.8% | 102% | 91.6% | 104% |
| CCOC(=O)[C@H]1O[C@@H]1C(=O)N[C@@H](CC(C)C)C(=O)NCCC(C)C [Aloxistatin] | 96.2% | 109% | 100% | 96.2% | 24.4% | 111% | 102% | 106% | 96.2% | 88.2% | 99.1% | 104% | 110% | 97.8% | 87.8% | 104% | 110% | 96.9% | 95.2% | 95.7% |
| N[C@](CCCCB(O)O)(CCN1CCCCC1)C(=O)O [Arginase inhibitor 1] | 91.3% | 94.5% | 103% | 96.4% | 93.9% | 109% | 96.7% | 101% | 90.4% | 95.4% | 101% | 92.3% | 103% | 92.4% | 84.9% | 105% | 88.6% | 101% | 99% | 102% |
| Cc1noc2c1-c1ccccc1C(c1ccc(Cl)cc1)=N[C@H]2CC(N)=O [CPI-0610] | 102% | 96.3% | 79% | 33.6% | 11.7% | 103% | 98.5% | 114% | 74.5% | 18.5% | 86.1% | 84% | 57.2% | 3.4% | 1.28% | 103% | 95.9% | 88.6% | 51.1% | 40.2% |
| Nc1ccn([C@@H]2O[C@H](CO)[C@@H](O)[C@@H]2O)c(=O)n1 [Cytarabine] | 107% | 105% | 89.6% | 78.1% | 9.44% | 104% | 95.2% | 19.6% | -0.409% | 1.24% | 103% | 89.2% | 84.2% | 34.4% | 0.163% | 103% | 104% | 89.9% | 91.7% | 23.8% |
| CCOc1ccc(Cc2cc([C@@H]3O[C@H](CO)[C@@H](O)[C@H](O)[C@H]3O)ccc2Cl)cc1 [Dapagliflozin] | 95.2% | 101% | 88.1% | 104% | 97% | 99.9% | 102% | 75.6% | 97.7% | 122% | 93.7% | 106% | 94.3% | 94.6% | 86.9% | 88.4% | 100% | 86.4% | 101% | 90.1% |
| CCN(CC)CCN(Cc1ccc(-c2ccc(C(F)(F)F)cc2)cc1)C(=O)Cn1c(SCc2ccc(F)cc2)nc(=O)c2c1CCC2 [Darapladib] | 98.6% | 98.8% | 97% | 93.8% | -0.418% | 99.5% | 103% | 105% | 91.1% | -0.527% | 88.5% | 104% | 87.8% | 102% | -0.522% | 107% | 98.8% | 100% | 96.3% | -0.44% |
| O=C(O)C(Cl)Cl [Dichloroacetate] | 101% | 98.9% | 102% | 102% | 103% | 102% | 102% | 101% | 97% | 103% | 99.6% | 91.5% | 83.5% | 98.5% | 102% | 100% | 98% | 103% | 95.8% | 102% |
